What all share (assay type): cell-based
Assay [1] has as its target T1, SALL4 (Homo sapiens, UniProt Q96SW2+Q9UJQ4).
T1 construct: SALL4 degradation in the Kelly cell line was investigated; endogenous in cells; host or cells: Kelly
Kind of assay: SALL4 degradation assay, Kelly cell line (Western blot densitometry). The following applies: Kelly cells, 100 nM, 24 h, average from n ≥ 2 experiments. On the procedure: (§1) Cells were seeded on 6- or 12-well plates, and the compounds to be tested were added at the desired concentration range. […] After 24 h incubation (37° C., 5% CO2), cells were harvested, washed and cell lysates were prepared using RIPA lysis buffer. The amount of protein was determined via BCA assay, and the appropriate quantity was then loaded on the precast gel for the protein separation. After primary and secondary Ab staining, the membranes were washed and signals developed. The densitometry analysis was implemented to obtain the numeric values used later in the protein level evaluation process.

The target in assay [2] is T2, Aiolos (IKZF3) (Homo sapiens, UniProt Q96SW2+Q9UKT9).
T2 construct: Aiolos degradation in the H929 cell line was investigated; endogenous in cells; host or cells: H929
Nature of the assay: Aiolos degradation assay, H929 cell line. The following applies: H929 cells, 20 μM, 24 h. On the procedure: as §1

The test system of assay [3] is KG-1 cells. Nature of the assay: Cell viability CTG assay, KG-1. The following applies: Homo sapiens; KG-1, 72 h, 0.001-50 μM; read-out: KG-1 Geomean absolute IC50 by molecule, 72 H. The gist of the method:
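Cells exposed to compound at 0.25% v/v DMSO for 72 h (37° C., 5% CO2). ATP quantified by CellTiter-Glo luminescence, normalized to DMSO control. Absolute IC50 (T/C=50%) by non-linear regression on duplicate means; geometric mean used for averages.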

Assay [4] relates to 22Rv1. Kind of assay: Cell viability, additional cell lines (CellTiter-Glo), 22Rv1. The following applies: Homo sapiens, 22Rv1, 72 h. As for the experimental part: (§2) Tumor cells are grown at 37° C. in a humidified atmosphere with 5% CO2 in RPMI 1640 medium, supplemented with 10% (v/v) fetal calf serum and 50 μg/ml gentamicin for up to 20 passages, and are passaged once or twice weekly.
(§3) Cells are harvested from exponential phase cultures, counted and plated in 96 well flat-bottom microtiter plates at a cell density depending on the cell line's growth rate (4,000-20,000 cells/well depending on the cell line's growth rate, up to 60,000 for hematological cancer cell lines) in RPMI 1640 medium supplemented with 10% (v/v) fetal calf serum and 50 μg/ml gentamicin (140 μl/well). Cultures are incubated at 37° C. and 5% CO2 in a humidified atmosphere. After 24 h, 10 μl of test compounds or control medium are added and left on the cells for another 72 h. Compounds are serially diluted in DMSO, transferred in cell culture medium, and added to the assay plates by using a Tecan Freedom EVO 200 robotic platform. The DMSO concentration is kept constant at 0.3% v/v across the assay plate. Viability of cells is quantified by the CellTiter-Glo® cell viability assay (Promega G8462). After incubation of cells, 100 μl of CellTiter-Glo® One Solution Assay reagent are added to each well. Plates are shaken for 2 minutes to induce cell lysis and incubated for 20 minutes prior to reading luminescence (LU) by using the EnVision® Xcite multilabel plate reader (Perkin Elmer). […]

For assay [5], the system named is MOLM-13. Nature of the assay: Cell viability, additional cell lines (CellTiter-Glo), MOLM-13. The conditions noted are these: Homo sapiens, MOLM-13, 72 h. As for the experimental part: as §2, §3
In general terms: ATP-based viability assays read luminescence as a measure of living cells.

Assay [6] relates to EOL-1. Kind of assay: Cell viability, additional cell lines (CellTiter-Glo), EOL-1. The conditions noted are these: Homo sapiens, EOL1; EOL-1, 72 h; read-out: Absolute IC50. On the procedure:
as §2, §3

For assay [7], the system named is HL-60. Nature of the assay: Cell viability, additional cell lines (CellTiter-Glo), HL-60. The conditions noted are these: Homo sapiens, HL-60, 72 h; read-out: Absolute IC50. On the procedure:
as §2, §3

The test system of assay [8] is Kasumi-1. Nature of the assay: Cell viability, additional cell lines (CellTiter-Glo), Kasumi-1. The following applies: Homo sapiens; Kasumi-1, 72 h; read-out: Absolute IC50. On the procedure:
as §2, §3

The test system of assay [9] is PL-21. Kind of assay: Cell viability, additional cell lines (CellTiter-Glo), PL-21. The following applies: PL-21, 72 h; read-out: Absolute IC50. As for the experimental part: as §2, §3
The test system of assay [10] is SU-DHL-1. Kind of assay: Cell viability, additional cell lines (CellTiter-Glo), SU-DHL-1. The conditions noted are these: Homo sapiens, SU-DHL-1, 72 h; read-out: Absolute IC50. As for the experimental part:
as §2, §3

For assay [11], the system named is U-937. Kind of assay: Cell viability, additional cell lines (CellTiter-Glo), U-937. The following applies: Homo sapiens, U-937, 72 h; read-out: Absolute IC50. As for the experimental part: as §2, §3
Assay [12] relates to IM-9. Nature of the assay: Cell viability, additional cell lines (CellTiter-Glo), IM-9. The conditions noted are these: Homo sapiens, IM-9, 72 h; read-out: Absolute IC50. On the procedure:
as §2, §3

Assay [13] concerns OPM-2. Kind of assay: Cell viability, additional cell lines (CellTiter-Glo), OPM-2. The conditions noted are these: Homo sapiens, OPM-2, 72 h; read-out: Absolute IC50. On the procedure:
as §2, §3

[14] abbreviates: 9.5 μM, read-out: Test/Control viability at 9.5 μM.

T1 sequence (Q9UJQ4 whole entry): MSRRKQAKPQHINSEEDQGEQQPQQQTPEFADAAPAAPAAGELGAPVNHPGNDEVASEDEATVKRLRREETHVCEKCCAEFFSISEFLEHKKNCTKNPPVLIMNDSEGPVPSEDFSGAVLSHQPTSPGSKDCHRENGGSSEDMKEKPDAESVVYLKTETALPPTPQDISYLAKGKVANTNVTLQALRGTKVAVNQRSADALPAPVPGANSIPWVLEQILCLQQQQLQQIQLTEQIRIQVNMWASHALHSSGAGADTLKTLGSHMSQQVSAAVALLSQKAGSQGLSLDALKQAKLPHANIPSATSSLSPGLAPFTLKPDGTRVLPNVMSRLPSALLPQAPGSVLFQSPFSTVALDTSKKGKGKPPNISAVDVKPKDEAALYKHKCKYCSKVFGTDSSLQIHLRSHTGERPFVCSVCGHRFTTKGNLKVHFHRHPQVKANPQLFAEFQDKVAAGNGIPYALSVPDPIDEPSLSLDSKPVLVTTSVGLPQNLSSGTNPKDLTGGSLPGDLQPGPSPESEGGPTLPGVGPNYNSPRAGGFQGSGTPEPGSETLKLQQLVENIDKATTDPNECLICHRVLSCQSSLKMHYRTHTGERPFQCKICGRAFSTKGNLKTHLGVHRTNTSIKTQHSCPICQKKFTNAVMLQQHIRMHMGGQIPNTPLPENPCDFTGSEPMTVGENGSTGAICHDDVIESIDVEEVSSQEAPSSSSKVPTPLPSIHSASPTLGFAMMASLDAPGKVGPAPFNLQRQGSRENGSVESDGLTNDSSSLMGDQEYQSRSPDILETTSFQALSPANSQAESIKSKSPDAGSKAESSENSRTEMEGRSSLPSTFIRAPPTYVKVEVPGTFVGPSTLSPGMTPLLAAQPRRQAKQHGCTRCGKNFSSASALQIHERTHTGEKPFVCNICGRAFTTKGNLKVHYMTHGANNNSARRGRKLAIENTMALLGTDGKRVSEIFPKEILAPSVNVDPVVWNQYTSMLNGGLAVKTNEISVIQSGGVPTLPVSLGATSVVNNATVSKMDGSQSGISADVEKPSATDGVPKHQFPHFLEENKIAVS
T1 sequence (Q96SW2 whole entry): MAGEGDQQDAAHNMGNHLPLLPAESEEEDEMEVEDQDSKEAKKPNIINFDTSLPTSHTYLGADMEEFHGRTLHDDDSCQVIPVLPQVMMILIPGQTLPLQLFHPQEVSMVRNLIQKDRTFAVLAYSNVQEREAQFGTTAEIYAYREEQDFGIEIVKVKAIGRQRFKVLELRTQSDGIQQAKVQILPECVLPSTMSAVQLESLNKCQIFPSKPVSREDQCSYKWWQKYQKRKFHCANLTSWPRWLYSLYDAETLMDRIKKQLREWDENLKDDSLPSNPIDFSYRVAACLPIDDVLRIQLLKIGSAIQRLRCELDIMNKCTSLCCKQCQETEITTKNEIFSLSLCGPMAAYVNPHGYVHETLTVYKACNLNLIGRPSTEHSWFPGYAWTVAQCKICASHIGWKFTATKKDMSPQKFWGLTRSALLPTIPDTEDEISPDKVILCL
T1 sequence (Q16531 whole entry partner): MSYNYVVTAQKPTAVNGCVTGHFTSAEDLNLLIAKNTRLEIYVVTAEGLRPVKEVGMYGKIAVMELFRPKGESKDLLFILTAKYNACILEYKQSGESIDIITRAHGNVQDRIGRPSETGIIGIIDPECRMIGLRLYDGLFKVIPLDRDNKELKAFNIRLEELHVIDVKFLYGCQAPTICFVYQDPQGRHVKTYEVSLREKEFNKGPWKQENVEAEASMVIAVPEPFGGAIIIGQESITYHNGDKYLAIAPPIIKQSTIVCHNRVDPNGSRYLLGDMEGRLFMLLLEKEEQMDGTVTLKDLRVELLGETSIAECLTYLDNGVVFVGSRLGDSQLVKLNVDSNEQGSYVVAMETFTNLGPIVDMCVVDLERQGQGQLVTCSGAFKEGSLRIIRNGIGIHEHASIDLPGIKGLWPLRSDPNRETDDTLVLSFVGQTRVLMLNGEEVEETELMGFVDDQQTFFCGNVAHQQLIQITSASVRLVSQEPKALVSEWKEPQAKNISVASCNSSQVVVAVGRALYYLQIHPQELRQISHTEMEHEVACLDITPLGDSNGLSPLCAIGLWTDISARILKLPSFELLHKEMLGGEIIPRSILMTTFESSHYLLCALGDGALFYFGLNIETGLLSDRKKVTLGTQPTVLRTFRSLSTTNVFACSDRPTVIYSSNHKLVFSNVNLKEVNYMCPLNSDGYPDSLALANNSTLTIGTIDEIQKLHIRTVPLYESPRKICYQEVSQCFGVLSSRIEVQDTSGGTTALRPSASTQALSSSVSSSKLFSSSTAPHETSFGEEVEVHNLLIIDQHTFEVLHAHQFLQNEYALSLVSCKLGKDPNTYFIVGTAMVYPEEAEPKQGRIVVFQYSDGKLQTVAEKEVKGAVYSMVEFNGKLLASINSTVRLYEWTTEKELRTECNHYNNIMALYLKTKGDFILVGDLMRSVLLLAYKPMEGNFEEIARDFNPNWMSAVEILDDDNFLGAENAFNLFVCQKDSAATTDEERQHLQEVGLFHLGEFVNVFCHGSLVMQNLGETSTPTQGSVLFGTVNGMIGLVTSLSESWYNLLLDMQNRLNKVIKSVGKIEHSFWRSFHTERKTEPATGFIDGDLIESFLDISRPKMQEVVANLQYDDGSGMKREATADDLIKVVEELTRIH
T2 sequence (Q9UKT9 whole entry): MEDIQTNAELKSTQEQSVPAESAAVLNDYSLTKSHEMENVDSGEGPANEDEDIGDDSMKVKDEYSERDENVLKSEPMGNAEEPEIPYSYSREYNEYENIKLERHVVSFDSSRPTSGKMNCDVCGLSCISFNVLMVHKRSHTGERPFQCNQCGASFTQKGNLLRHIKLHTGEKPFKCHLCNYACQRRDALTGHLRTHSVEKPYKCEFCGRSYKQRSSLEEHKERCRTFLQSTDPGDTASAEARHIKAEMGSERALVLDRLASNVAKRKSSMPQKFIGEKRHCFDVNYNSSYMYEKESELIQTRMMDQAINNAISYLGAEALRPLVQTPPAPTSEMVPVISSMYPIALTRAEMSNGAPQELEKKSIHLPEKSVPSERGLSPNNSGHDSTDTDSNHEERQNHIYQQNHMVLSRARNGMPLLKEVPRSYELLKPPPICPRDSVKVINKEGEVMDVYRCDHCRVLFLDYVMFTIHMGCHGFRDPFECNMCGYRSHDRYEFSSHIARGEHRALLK
T2 sequence (Q96SW2 whole entry): as the sequence (Q96SW2 whole entry) above
T2 sequence (Q16531 whole entry partner): as the sequence (Q16531 whole entry partner) above

In the case of `NCc1ccc2c(c1)CN(C1CCC(=O)NC1=O)C2=O` (stereo not drawn) [Compound 1, 3-(5-(aminomethyl)-1-oxoisoindolin-2-yl)piperidine-2,6-dione], the “% of SALL4 protein reduction” value in assay [1] is listed as more than 80%. The “% of IKZF3 protein reduction” value in [2] is “C (C represents 0-24% of IKZF1 protein reduction)”. The IC50 (in general, the midpoint of a concentration-inhibition curve) in assay [3] is not above 0.1 µM; in [4] (read-out: Absolute IC50), not below 30 µM; in [5] (read-out: Absolute IC50), not below 30 µM; in [6], more than 30 µM; in [7], more than 30 µM; in [8] it was more than 30 µM. The IC50 in [9], in assay [10], in assay [11], in [12] and in [13] was more than 30 µM each time. Besides, the viability at 9.5 µM in assay [4] (setting [14]) and in assay [5] (setting [14]) was not above 60% throughout.
